This note sets out measurements from US6624192B1, “Process for production of diacetylrhein” (Madaus AG, priority 1991, dated 2003).

For orientation: LD50 means the dose at which mortality reaches 50%. The low end stands for a more toxic substance, the high end for a less toxic substance.

Data set [1] has as its system arthrosis induced by the intraarticular administration of vitamin A. Put plainly: Vitamin A arthrosis in rabbits. The format is in vivo, rabbit. The settings on record: for Clinical signs of arthrosis (disturbances of movement): 7 rabbits. The protocol:
The effectiveness of diacetylrhein was determined in chronic inflammation models after oral administration. The following experimental models were used: cotton pellet granuloma in rats and arthrosis in rabbits induced by the intraarticular administration of vitamin A. b) Vitamin A arthrosis. An arthrosis-like joint change was initiated in two groups each of 10 rabbits (white New Zealanders) by means of three intraarticular injections of 30,000 IU of Vitamin A over the course of 9 days. 56 days later, 10 animals were treated with 3 mg of diacetylrhein/kg/day for 8 weeks. […] Furthermore, the curative action of diacetylrhein was compared with that of acetylsalicylic acid on each of 7 rabbits which, after 6 days pre-treatment with three times 10,000 IU Vitamin A and a 26 day treatment-free interval for 8 weeks, received either 5 mg of diacetylrhein/kg/day (experimental group) or 15 mg of acetylsalicylic acid/kg/day (positive control group) or remained untreated (negative control group). […] In the negative control group, during the following 8 weeks, the clinical signs of a manifest arthrosis increased.

The subject of the next data set is cotton pellet granuloma. Put plainly: Cotton pellet granuloma in rats. Format: in vivo, rat. The protocol: The effectiveness of diacetylrhein was determined in chronic inflammation models after oral administration. The following experimental models were used: cotton pellet granuloma in rats and arthrosis in rabbits induced by the intraarticular administration of vitamin A. a) Cotton pellet granuloma in rats. Young sexually mature rats (n=10) were given 25, 50 or 100 mg diacetylrhein/kg or 5 mg indomethacin/kg or 100 mg acetylsalicylic acid/kg daily for 5 days. A control group only treated with water was also used. Implantation of the pellets took place on the first day of treatment.

Data set [2] has as its system coxarthrosis and gonarthrosis. The data set is described as follows: Clinical double-blind study against naproxen with placebo after-treatment. The format is in vivo, patients. The note with it: for Improvement in all test parameters (pain and movement symptoms, functional limitation, compatibility) in comparison with the initial values: 60 days. On the procedure:
1. The action of diacetylrhein was investigated in coxarthrosis and gonarthrosis in 95 (49/46) patients in a double-blind study against naproxen and subsequent placebo after-treatment. The dosage administered was 50 mg of diacetylrhein twice daily or 750 mg of naproxen daily. The period of treatment was 60 days after a 7 day wash-out phase. The subsequent placebo treatment extended over 60 days.
Test parameters were the pain and movement symptoms according to a score scale, functional limitation and compatibility.

A further data set has as its system osteoarthrosis. The data set is described as follows: Clinical randomised double blind compatibility study (oesophagogastroduodenoscopic findings). The format is in vivo, patients. The settings on record: after 4 weeks. The protocol:
4. The action of diacetylrhein was investigated in 23 patients (12/11) with osteoarthrosis in a randomised double blind study using the “double dummy technique” (compatibility study). The dosage administered was 50 mg of diacetylrhein twice daily and 250 mg of naproxen three times daily. The period of treatment was 4 weeks. The test parameters were the oesophagogastroduodenoscopic findings before and after the therapy. Only patients with normal mucosal findings or with slight mucosal lesions (grade 1) were used in the study.

The nature of the next data set: in vivo. The note with it: rat, mouse, cat.
Data set [3] relates to osteoarthrosis of the spine and of the knee. Put plainly: Clinical open study with physiotherapy control. The format is in vivo, patients. On the procedure:
2. In an open running study with control, there was investigated the action of diacetylrhein against osteoarthrosis of the spine and of the knee in 70 patients (35/35). The dosage administered was 100 mg of diacetylrhein per day. The period of treatment was 60 days and the period of observation was 75 days. The test parameters were pain and movement limitation. The parameters were evaluated according to a score system. The control group comprised 35 patients in the case of which exclusively physiotherapeutic measures were carried out. Physiotherapy was also carried out in the diacetylrhein treatment group.

A further data set deals with gastric mucosa. The data set is described as follows: Gastric mucosa changes in the rat. The format is in vivo.
The next data set concerns localised arthrosis. The data set is described as follows: Clinical single blind crossover study against naproxen. The format is in vivo, patients. The protocol:
3. The action of diacetylrhein in the case of localised arthrosis in 20 patients was investigated in a single blind crossover study against naproxen. […] Subsequently, there followed a three day wash-out phase and a further treatment with 250 mg of naproxen twice daily for a further 20 days. In the second group, the reverse sequence was used. The period of treatment was, in all, 43 days. The test parameters of pain, compression pain, passive movement pain, functional limitation and swelling were determined according to a score system.

[4] abbreviates: crossover study, 43 days in all.

With `CC(=O)Oc1ccccc1C(=O)O` [acetylsalicylic acid, reference compound], the “Clinical signs of arthrosis (disturbances of movement)” value in data set [1] (15 mg/kg/day for 8 weeks, positive control group) is reported as “improved significantly”.
With `CC(=O)Oc1cccc2c1C(=O)c1c(OC(C)=O)cc(C(=O)O)cc1C2=O` [diacetylrhein, Diacetylrhein], in the data set on cotton pellet granuloma (rats n=10, oral, 25, 50 or 100 mg/kg daily for 5 days, in comparison with the control group), the “Fresh and dry weights of the granuloma” value was “significant and clearly dosage-dependent reduction”. Further, the “Weights of the thymus and adrenals” value in the data set with cotton pellet granuloma (rats, during the 5 days treatment) is recorded as “did not change”. In addition, in the data set on cotton pellet granuloma (rats, oral, 100 mg diacetylrhein/kg daily for 5 days vs 5 mg indomethacin/kg or 100 mg acetylsalicylic acid/kg), the “Action on granuloma compared with reference drugs” value is recorded as “corresponded to about the action of 5 mg indomethacin or of 100 mg acetylsalicylic acid”. Moreover, the “Improvement in all test parameters (pain and movement symptoms, functional limitation, compatibility) in comparison with the initial values” in data set [2] (50 mg twice daily, P<0.01) was “statistically significant rate of improvement”. Moreover, the “Night pain and pressure pain after discontinuation, in comparison with the naproxen/placebo collective” value in data set [2] (30 days after discontinuation, 5% level) is on record as “difference was also verified”. The “Spontaneous pain and active and passive movement pain after discontinuation, in comparison with the naproxen/placebo collective” value in data set [2] (days 90 and 120, placebo after-treatment, P<0.01) is reported as “statistically significant superiority”. Further, the “Patients with mucosal lesions of grade 2 (endoscopic findings)” value with osteoarthrosis (50 mg twice daily, one case) is recorded as 10%. In “in vivo”, the 50% lethal dose (LD50) lay within 119 to 339 mg/kg. For the same molecule, in “in vivo” (po), the LD50 lay within 1900 to 7900 mg/kg. For the same molecule, the “Effect after discontinuation of the treatment” value in data set [3] (100 mg per day for 60 days, observation 75 days) is recorded as “continuing therapeutic effect (hang-over effect)”. In addition, in data set [3] (100 mg per day, 60 days, plus physiotherapy, control physiotherapy only), the “Pain and movement limitation (all parameters, score system) versus control group” value is on record as “statistically significant superiority”. The “Clinical signs of arthrosis (disturbances of movement)” value in data set [1] (5 mg/kg/day for 8 weeks, curative) is “improved significantly”. In addition, in data set [1] (rabbits, 3 mg/kg/day for 8 weeks, in comparison with the control group), the “Macroscopically and microscopically recognisable joint changes” value is “significantly reduced”. Further, the “Erosions of the gastric mucosa” value in the data set with gastric mucosa (single administration of 400 mg/kg) is on record as “did not give rise to any erosions”. The Mucosal damage entry in the data set on gastric mucosa (twice daily 100 mg/kg over 3 days) is listed as “did not initiate any mucosal damage”. The “Pain, compression pain, passive movement pain, functional limitation and swelling (score system) in comparison with naproxen” value in the data set with localised arthrosis (50 mg twice daily for 20 days vs 250 mg naproxen twice daily for 20 days, crossover) is recorded as “superiority”. In the data set on localised arthrosis (setting [4]), the Clinical laboratory parameters result is “no changes” and the Side effects entry is “No noteworthy side effects”.
Take `CC(C)Cc1ccc(C(C)C(=O)O)cc1` (stereo not shown) [ibuprofen]: in the data set on gastric mucosa (in vivo, 200 mg/kg), the “Erosions of the gastric mucosa” value is reported as “distinct mucosal damages”.
As for `COc1ccc2c(c1)c(CC(=O)O)c(C)n2C(=O)c1ccc(Cl)cc1` [indomethacin], the Mucosal damage result with gastric mucosa (in vivo, 10 mg/kg) is “certainly did”. The “Diameter of the erosions” value with gastric mucosa (in vivo, 10 mg/kg, 3 days) was in the range of 1 to 3 mm. Moreover, the “Erosions of the gastric mucosa” value in the data set on gastric mucosa (in vivo, 20 mg/kg) is given as “distinct mucosal damages”.
For the molecule `COc1ccc2cc([C@H](C)C(=O)O)ccc2c1` [naproxen, reference compound], the “Improvement in all test parameters (pain and movement symptoms, functional limitation, compatibility) in comparison with the initial values” in data set [2] (750 mg daily, P<0.05) is recorded as “statistically significant rate of improvement”. The “Patients with mucosal lesions of grade 2, 3 and 4 (endoscopic findings)” value in the data set with osteoarthrosis (250 mg three times daily, 5 patients) was 50%.
